For assay [1], the system named is Mouse peritoneal macrophages. Description: Mouse Macrophage Assay (leukotriene C4 / PGE2 / 6-keto PGF1α formation, zymosan stimulated). It is filed as cell-based. Conditions: at 0.05 mg/ml, read-out: Macrophage, % at stated concentration. The method, then:
Mouse peritoneal macrophages were treated sequentially with arachidonic acid (labelled with tritium); the compound being evaluated as an inhibitor, and a stimulator (zymosan). Metabolites derived from arachidonic acid PGE2 6-keto PH-F1α and leukotriene C4) were separated from the incubation medium by extraction and chromatography, and then quantitated by determining the amount of radioactivity (cpm) associated with each of them. […] (This protocol is identical to that described in the reference except that the radioactivity herein associated with the LTC4 was determined by counting an aliquot of the final aqueous solution directly rather than chromatographing it first).
Reference: Humes, J. L. et al., J. Biol. Chem. 257, 1591-4, (1982).

In assay [2] the test system is tracheal chain of sensitized guinea pigs. Description: Antigen Challenge 'in vitro' Assay (egg albumin contraction of sensitized guinea pig tracheal chain). The conditions noted are these: Table 4.
The test system is the same in assay [3]. The description is as above. Conditions: 10 μg (μg/ml). The method, then:
Male guinea pigs weighing 300-350 g were sensitized by injecting (I.P.) 0.5 ml of a suspension containing 0.4 mg of egg albumin (Ovalbumin, Grade V, Sigma Chemical Co.) and 4.0 g aluminum hydroxide in 19.6 ml of saline. Two weeks were permitted for sensitization to occur.
Three sensitized guinea pigs were stunned and exsanguinated. The tracheas were removed, freed of adhering tissue and divided longitudinally by cutting through the cartilaginous tissue directly opposite the muscle insertion. Each opened trachea was then transected between every second cartilage. Four of the cut sections were tied together, end to end, in a series with No. 7 silk thread ensuring that the tracheal muscles were all in the same vertical plane. Thus, each chain consisted of tissue from three different animals.
The chain so formed was then suspended under 1 g of tension (by silk ties at each end) in a 20 ml organ bath containing 10 ml of modified* Krebs-Henseleit buffer solution gassed with 95% O2 and 5% CO2 at 37° C. Mepyramine (0.55 μg/ml) and indomethacin (2.67 μg/ml) were added to the buffer to avoid the contribution of histamine receptors and cyclooxygenase products to the contraction. To record responses one end of the tracheal chain was attached to a Gould-Statham UC-2 force displacement transducer which was connected to a Beckman Type R-dynograph.The preparations were allowed to equilibrate for one hour during which time the tissues were automatically washed (10 ml volume displacement) every 6 minutes.
After the equilibration period the tissues were primed with methacholine (3 μg/ml; 1.5×10^-5 M), washed and allowed to recover to baseline. The tissues were treated again with a second dose of methacholine, washed, allowed to return to baseline and washed for an additional hour.
Two chains were used as a control. These were incubated in a concentration of egg albumin sufficient to induce an average contraction of 50-80% of the methacholine response.
Each compound to be tested was added to two other baths (at a final concentration in each bath of 10 μg/ml) 15 minutes prior to challenging the fresh chains with egg albumin.
The response of the challenged tissue was expressed as a percentage of the methacholine maximum. The % inhibition for each compound was then calculated. Compounds which at 10 μg/ml (final conc.) inhibited the egg albumin response by 50% or more were retested at a lower concentration.

The test system of assay [4] is asthmatic rats. The experiment in a line: Asthmatic Rat Assay (duration of dyspnoea after egg albumin aerosol). The class given is in vivo. The conditions noted are these: for ED50: Rattus norvegicus; for % inhibition (Ed50 column): p.o. The source says:
Rats were obtained from an inbred line of asthmatic rats. Both female and male rats from 200 to 300 g were used.
Egg albumin (EA), grade V, crystallized and lyophilized, was obtained from Sigma Chemical Co., St. Louis. Bordetella pertussis vaccine, containing 30×10^9 killed bacteria per ml was obtained from the Institut Armand-Frappier, Laval des Rapides, Quebec. Aluminum hydroxide was obtained from the Regis Chemical Company, Chicago.
The challenge and subsequent respiratory recordings were carried out in a clear plastic box with internal dimensions 10×6×4 inches. The top of the box was removable; in use, it was held firmly in place by four clamps and an airtight seal was maintained by a soft rubber gasket. […] A Fleisch No. 0000 pneumotachograph was inserted into one end of the box and coupled to a Grass volumetric pressure transducer (PT5-A) which was then connected to a Beckman Type T Dynograph through appropriate couplers. While aerosolizing the antigen, the outlets were open and the pneumotachograph was isolated from the chamber. The outlets were closed and the pneumotachograph and the chamber were connected during the recording or the respiratory patterns. For challenge, 2 ml of a 3% solution of antigen in saline was placed into each nebulizer and the aerosol was generated with air from a small Potter diaphragm pump operating at 10 psi and a flow of 8 liters/minute.
Rats were sensitized by injecting (s.c.) 1 ml of a suspension containing 1 mg EA and 200 mg aluminum hydroxide in saline. Simultaneously, they received an injection (i.p.) of 0.5 ml of B. pertussis vaccine. They were used between days 14 and 18 postsensitization. In order to eliminate the serotonin component of the response, rats were pretreated intravenously 5 minutes prior to aerosol challenge with […] methylserzide. Rats were then exposed to an aerosol of 3% EA in saline for exactly 1 minute, then their respiratory profiles were recorded for a further 25-30 minutes. The duration of continuous dyspnoea was measured from the respiratory recordings.
Compounds were generally administered either intraperitoneally 1 hour prior to challenge or orally 11/2 hours prior to challenge. They were either dissolved in dimethylsulfoxide or suspended in 0.1% methocel and 0.5% Tween 80. The volume injected has 2 ml/kg (intraperitoneally) or 10 ml/kg (orally). Prior to oral treatment rats were starved overnight. Their activity was determined in terms of their ability to decrease the duration of symptoms of dyspnoea in comparison with a group of vehicle-treated controls. Usually, a compound was evaluated at a series of doses and an ED50 was determined. This was defined as the dose (mg/kg) which would inhibit the duration of symptoms by 50%.

Assay [5] concerns rat paw, PAF-induced hyperalgesia. The experiment in a line: PAF-Induced Hyperalgesia Assay. It is filed as in vivo, Female Sprague-Dawley rats. Conditions: for Vocalization Threshold: 3 hr after PAF, Mean ± S.E.M., n = 10. Here is the method: Female Sprague-Dawley rats, 35-40 g were fasted overnight. Platelet activating factor, PAF, (L-lecithin B-acetyl O-alkyl) 1 μg/0.1 ml was given by subplantar injection in the rat paw. The compounds to be evaluated were homogenized in Aqueous Vehicle (0.9% benzyl alcohol, 0.5% Tween 80 and 0.4% methylcellulose) and administered orally in a volume of 0.1 ml, 30 minutes prior to PAF.
Animals were tested 1, 2, 3 and 4 hours after PAF administration. The vocalization threshold, defined as the pressure (mmHg) needed to evoke a squeak response, was recorded for both the injected and contralateral paw. No animal was subjected to pressure greater than 60 mmHg. Hyperalgesia is defined as a decrease in vocalization threshold as compared to a normal paw. Percent inhibition of hyperalgesia was calculated as the proportion of animals with vocalization thresholds greater than 200% of controls.
^a mmHg Mean ± S.E.M., n = 10 Reading taken 3 hr after injection o
PAF, (3.5 hr. after administration of compound).

The subject of assay [6] is rat paw, Brewer's yeast hyperalgesia. The experiment in a line: Brewer's Yeast Hyperalgesia Assay. It is filed as in vivo, Female Sprague-Dawley rats. The conditions noted are these: for Vocalization Threshold: mean, n = 10. The method, then:
The standard method* for yeast hyperalgesia was used. Female Sprague-Dawleyrats, […] were fasted overnight. A 5% solution (volume 0.1 ml) of Brewer's yeast was injected into the rat paw. The compound was homogenized in aqueous vehicle and given orally 2 hours after yeast. Vocalization thresholds were recorded 1 hours after drug (3 hours after yeast).
^a mmHg: mean ± S.E.M. n = 10

What is called ED50 is the dose that gives a 50% effect, or the effect in half of the subjects. For orientation: % Inhibition means the percentage by which the read-out fell short of the control. High values mean a strong effect, low ones a weak effect.

Take `Cc1cc2nc3ccc(N(C)C)cc3sc-2cc1=N`: the inhibition at 50 µg/mL in assay [1] was 10%. Moreover, the “In Vitro Antigen Challenge Test % Inhibition” value in assay [2] (10 mg (mg/ml)) is listed as 24%.

Regarding “4-Chloro-2,7-dimethoxy-3H-phenothiazin-3-one [Example 3]”, the “In Vitro Antigen Challenge Test % Inhibition” value in assay [3] was determined as 25%.

In the case of “4-Chloro-2,7-dimethyl-3H-phenothiazin-3-one [Example 5]”, in assay [3], the “In Vitro Antigen Challenge Test % Inhibition” value came to 45%.

In the case of “4-Chloro-7-methyl-3H-phenothiazin-3-one [Example 7]”, the “In Vitro Antigen Challenge Test % Inhibition” value in assay [2] (10 mg (mg/ml)) is 37%.

As for “7-Fluoro-2-methoxy-3H-phenothiazin-3-one [Example 13]”, the “In Vitro Antigen Challenge Test % Inhibition” value in assay [2] (3 mg (mg/ml)) came to 54%.

As to “7-Fluoro-3H-phenothiazin-3-oone [Example 11]”, the “In Vitro Antigen Challenge Test % Inhibition” value in assay [2] (3 mg (mg/ml)) amounted to 23%.

Turning to `O=c1ccc2nc3ccccc3sc-2c1Cl` [B], the ED50 in assay [4] (po) turned out to be 1.5 mg/kg.

`O=c1ccc2nc3ccccc3sc-2c1` [C]: in assay [4] (ip), the ED50 was ~5 mg/kg.

`COc1ccc2nc3cc(OC)c(=O)c(Br)c-3sc2c1` [D] yielded an ED50 in assay [4] (po) of 1 mg/kg.

As to `O=C1C=CC2=Nc3ccccc3S(=O)(=O)C2=C1O` [E], the “% inhibition (Ed50 column)” value in assay [4] (at 1.5 mg/kg) is 37%.

With `O=c1ccc2nc3ccccc3sc-2c1Cl` [Example 2, 4-Chloro-3H-phenothiazin-3-one], the “% Inhibition” value in assay [5] (Experiment 1, 0.01 mg/kg p.o.) came out at 40%; in assay [5] (Experiment 1, 0.03 mg/kg p.o.), 80%; in assay [5] (Experiment 1, 0.1 mg/kg p.o.), 80%; in assay [5] (Experiment 1, 0.3 mg/kg p.o.) it was 90%; in assay [5] (Experiment 1, 3.0 mg/kg p.o.), 100%; in assay [5] (Experiment 2, 0.001 mg/kg p.o.), 0%. Also, the “% Inhibition” value in assay [5] (Experiment 2, 0.003 mg/kg p.o.) came to 30%; in assay [5] (Experiment 2, 0.01 mg/kg p.o.), 30%; in assay [5] (Experiment 2, 0.1 mg/kg p.o.) it was 60%; in assay [6] (0.3 mg/kg p.o.), 30%; in assay [6] (1.0 mg/kg p.o.) it was 30%; in assay [6] (3.0 mg/kg p.o.), 60%. For the same compound, the “% Inhibition” value in assay [6] (10.0 mg/kg p.o.) is reported as 70%; in assay [6] (30.0 mg/kg p.o.), 80%. For the same compound, the “Vocalization Threshold” value in assay [5] (Experiment 1, 0.01 mg/kg p.o.) was determined as 28.2 ± 5.2 mmHg; in assay [5] (Experiment 1, 0.03 mg/kg p.o.), 40.2 ± 5.0 mmHg; in assay [5] (Experiment 1, 0.1 mg/kg p.o.), 37.4 ± 3.9 mmHg; in assay [5] (Experiment 1, 0.3 mg/kg p.o.), 45.4 ± 3.7 mmHg; in assay [5] (Experiment 1, 3.0 mg/kg p.o.), 46.0 ± 3.0 mmHg; in assay [5] (Experiment 2, 0.001 mg/kg p.o.) it was 10.0 ± 1.6 mmHg. Also, the “Vocalization Threshold” value amounted to 16.4 ± 2.8 mmHg in assay [5] (Experiment 2, 0.003 mg/kg p.o.); 18.0 ± 2.9 mmHg in assay [5] (Experiment 2, 0.01 mg/kg p.o.); 29.6 ± 4.4 mmHg in assay [5] (Experiment 2, 0.1 mg/kg p.o.); 17.6 mmHg in assay [6] (0.3 mg/kg p.o.); 19.4 mmHg in assay [6] (1.0 mg/kg p.o.); 30.0 mmHg in assay [6] (3.0 mg/kg p.o.). Further, the “Vocalization Threshold” value in assay [6] (10.0 mg/kg p.o.) is listed as 28.6 mmHg; in assay [6] (30.0 mg/kg p.o.), 32.6 mmHg.

As for `O=c1cc2sc3ccccc3nc-2c2ccccc12` [F], the “% inhibition (Ed50 column)” value in assay [4] (at 5 mg/kg) is 36%.

`O=c1ccc2nc3ccccc3sc-2c1Cl` [drawing 40]: the ED50 in assay [4] (ip) worked out at 0.5 mg/kg.

The values above are taken from patent US4667032A, “Phenothiazone derivatives and analogs” (Merck Frosst Canada, Inc., priority 1985, dated 1987).
